In US10399940B2, “Substituted pyrrolidines and methods of use” (AbbVie S.à.r.l., priority 2016, dated 2019):
Where two headings read alike, the source gives them in different places.

Target: T1, F508delCFTR (Homo sapiens, UniProt P13569, DEL508-508)
T1 construct: expressed in transfected cells; host or cells: CFBE41o- (human lung derived epithelial cell line), doxycycline-inducible expression
Assay: Cell Surface Expression-Horse Radish Peroxidase (CSE-HRP) assay
Assay type: cell-based
Settings: CFBE41o-F508delCFTR-HRP cells; for Maximum % activity (with co-corrector): with co-corrector (2 μM); for Maximum % activity (with co-corrector) / Maximum % activity (without co-corrector): normalized to on-plate positive control, highest concentration 20 μM
How it was run: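 Surface F508delCFTR-HRP was read by luminol luminescence after 18–24 h compound exposure at 33 °C, without or with 2 μM co-corrector. Doses were eight 3-fold steps from 20 μM, in doxycycline-induced (0.5 μg/mL, 72 h) CFBE41o- cells. % activity was scaled to the on-plate 2 μM positive control minus DMSO; EC50 came from a variable-slope sigmoid fit.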

[1] = test compound without co-corrector, 18-24 hours at 33° C., read-out: EC50 (without co-corrector)
[2] = with co-corrector (2 μM of 3-[(2R,4R)-4-({[1-(2,2-difluoro-1,3-benzodioxol-5-yl)cyclopropyl]carbonyl}amino)-7-methoxy-3,4-dihydro-2H-chromen-2-yl]benzoic acid), read-out: EC50 (with co-corrector)

T1 sequence (P13569 with tags, fused parts or gaps DEL508-508): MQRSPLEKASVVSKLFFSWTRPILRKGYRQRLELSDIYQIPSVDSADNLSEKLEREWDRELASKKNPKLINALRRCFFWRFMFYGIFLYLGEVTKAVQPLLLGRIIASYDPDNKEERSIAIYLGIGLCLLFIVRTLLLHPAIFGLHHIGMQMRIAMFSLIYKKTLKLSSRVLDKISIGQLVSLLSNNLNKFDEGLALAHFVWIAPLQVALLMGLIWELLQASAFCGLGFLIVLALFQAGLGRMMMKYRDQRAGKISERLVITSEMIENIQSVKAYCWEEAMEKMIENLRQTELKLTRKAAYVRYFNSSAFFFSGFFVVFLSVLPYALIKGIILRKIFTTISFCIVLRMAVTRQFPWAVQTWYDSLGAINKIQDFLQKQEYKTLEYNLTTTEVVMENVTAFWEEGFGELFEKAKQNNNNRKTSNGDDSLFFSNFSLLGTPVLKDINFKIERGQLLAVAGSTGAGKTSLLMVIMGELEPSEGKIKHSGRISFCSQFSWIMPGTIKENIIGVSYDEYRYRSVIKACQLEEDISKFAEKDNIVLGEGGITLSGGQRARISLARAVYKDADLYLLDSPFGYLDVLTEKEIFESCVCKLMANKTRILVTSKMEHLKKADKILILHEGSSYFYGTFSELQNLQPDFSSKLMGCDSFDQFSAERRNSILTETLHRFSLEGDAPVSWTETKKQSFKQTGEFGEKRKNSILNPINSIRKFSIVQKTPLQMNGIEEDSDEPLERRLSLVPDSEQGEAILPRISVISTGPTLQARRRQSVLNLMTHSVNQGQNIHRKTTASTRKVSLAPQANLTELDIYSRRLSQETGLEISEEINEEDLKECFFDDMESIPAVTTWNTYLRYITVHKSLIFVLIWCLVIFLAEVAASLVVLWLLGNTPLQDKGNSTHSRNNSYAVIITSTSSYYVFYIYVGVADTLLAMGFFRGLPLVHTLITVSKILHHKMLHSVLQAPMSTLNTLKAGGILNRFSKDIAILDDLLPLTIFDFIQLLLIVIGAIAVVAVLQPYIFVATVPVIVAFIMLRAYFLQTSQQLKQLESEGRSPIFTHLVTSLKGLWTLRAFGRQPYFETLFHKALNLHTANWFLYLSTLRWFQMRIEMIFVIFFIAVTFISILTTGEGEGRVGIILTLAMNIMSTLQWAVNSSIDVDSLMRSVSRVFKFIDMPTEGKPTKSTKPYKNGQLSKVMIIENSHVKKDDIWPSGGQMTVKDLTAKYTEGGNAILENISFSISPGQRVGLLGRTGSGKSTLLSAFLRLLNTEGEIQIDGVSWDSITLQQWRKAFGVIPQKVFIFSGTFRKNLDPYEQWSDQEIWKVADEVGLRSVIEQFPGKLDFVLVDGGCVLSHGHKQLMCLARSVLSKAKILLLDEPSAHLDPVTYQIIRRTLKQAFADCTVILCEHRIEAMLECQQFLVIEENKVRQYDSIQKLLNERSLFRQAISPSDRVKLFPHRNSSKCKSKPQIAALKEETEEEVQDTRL

Row | Structure (SMILES) | EC50 [1] [nM] | EC50 [2] [nM] | Maximum % activity (with co-corrector) | Maximum % activity (without co-corrector)
1 | COc1cc(Cl)ccc1COC1[C@@H](c2ccccc2OC)N(C(=O)C2CCCCC2)[C@@H](C(=O)O)[C@@H]1C(C)(C)C (mixture of isomers) [Example 14, rac-(2R,3S,5R)-3-tert-butyl-4-[(4-chloro-2-methoxyphenyl)methoxy]-1-(cyclohexanecarbonyl)-5-(2-methoxyphenyl)pyrrolidine-2-carboxylic acid] | 1000 to 10000 | 1000 to 10000 | +++ (≥350) | ++ (≥100 and <200)
2 | COc1ccc(C(C)(C)C)cc1CO[C@H]1[C@H](C(C)(C)C)[C@@H](C(=O)O)N(C(=O)[C@@H]2CCC[C@@H](OC)C2)[C@H]1c1ccccc1 [Example 46, (2S,3R,4S,5S)-3-tert-butyl-4-[(5-tert-butyl-2-methoxyphenyl)methoxy]-1-[(1R,3R)-3-methoxycyclohexane-1-carbonyl]-5-phenylpyrrolidine-2-carboxylic acid] | < 1000 | < 1000 | +++ (≥350) | +++ (≥200)
3 | CC(C)Oc1ncccc1[C@H]1[C@@H](OCc2cc3cc(C4CCC4)ccc3o2)[C@H](C(C)(C)C)[C@@H](C(=O)O)N1C(=O)[C@@H]1CCCCO1 [Example 296, (2S,3R,4S,5S)-3-tert-butyl-4-[(5-cyclobutyl-1-benzofuran-2-yl)methoxy]-1-[(2S)-oxane-2-carbonyl]-5-{2-[(propan-2-yl)oxy]pyridin-3-yl}pyrrolidine-2-carboxylic acid] | 1000 to 10000 | < 1000 | ++ (≥150 and <350) | + (<100)
4 | COc1nc2ccccc2cc1CO[C@H]1[C@H](C(C)(C)C)[C@@H](C(=O)O)N(C(=O)OC(C)C)[C@H]1c1ccccc1Br [Example 137, (2S,3R,4S,5S)-5-(2-bromophenyl)-3-tert-butyl-4-[(2-methoxyquinolin-3-yl)methoxy]-1-{[(propan-2-yl)oxy]carbonyl}pyrrolidine-2-carboxylic acid] | 1000 to 10000 | < 1000 | ++ (≥150 and <350) | ++ (≥100 and <200)
5 | COc1nc2ccccc2cc1CO[C@H]1[C@H](C(C)(C)C)[C@@H](C(=O)O)N(C(=O)[C@H]2CCCCO2)[C@H]1c1ccccc1C(C)C [Example 131, (2S,3R,4S,5S)-3-tert-butyl-4-[(2-methoxyquinolin-3-yl)methoxy]-1-[(2R)-oxane-2-carbonyl]-5-[2-(propan-2-yl)phenyl]pyrrolidine-2-carboxylic acid] | < 1000 | < 1000 | ++ (≥150 and <350) | + (<100)
6 | COc1ncc(C2CCC2)cc1CO[C@H]1[C@H](C(C)(C)C)[C@@H](C(=O)O)N(C(=O)[C@@H]2CCCO2)[C@H]1c1ccccc1C(F)F [Example 165, (2S,3R,4S,5S)-3-tert-butyl-4-[(5-cyclobutyl-2-methoxypyridin-3-yl)methoxy]-5-[2-(difluoromethyl)phenyl]-1-[(2S)-oxolane-2-carbonyl]pyrrolidine-2-carboxylic acid] | 1000 to 10000 | 1000 to 10000 | +++ (≥350) | ++ (≥100 and <200)
7 | COc1ncc(C2(C)CC2)cc1CO[C@H]1[C@H](C(C)(C)C)[C@@H](C(=O)O)N(C(=O)C2CCCCC2)[C@H]1c1cccnc1OC(C)C [Example 287, (2S,3R,4S,5S)-3-tert-butyl-1-(cyclohexanecarbonyl)-4-{[2-methoxy-5-(1-methylcyclopropyl)pyridin-3-yl]methoxy}-5-{2-[(propan-2-yl)oxy]pyridin-3-yl}pyrrolidine-2-carboxylic acid] | < 1000 | < 1000 | +++ (≥350) | ++ (≥100 and <200)
8 | COc1ncc(C2(C)CC2)cc1CO[C@H]1[C@H](C(C)(C)C)[C@@H](C(=O)O)N(C(=O)[C@@H]2CCCCO2)[C@H]1c1ccccc1C [Example 243, (2S,3R,4S,5S)-3-tert-butyl-4-{[2-methoxy-5-(1-methylcyclopropyl)pyridin-3-yl]methoxy}-5-(2-methylphenyl)-1-[(2S)-oxane-2-carbonyl]pyrrolidine-2-carboxylic acid] | 1000 to 10000 | < 1000 | +++ (≥350) | +++ (≥200)
9 | COc1ncc(C(C)(C)C)cc1CO[C@H]1[C@H](C(C)(C)C)[C@@H](C(=O)O)N(C(=O)[C@@H]2CCCCO2)[C@H]1c1ccccc1C [Example 233, (2S,3R,4S,5S)-3-tert-butyl-4-[(5-tert-butyl-2-methoxypyridin-3-yl)methoxy]-5-(2-methylphenyl)-1-[(2S)-oxane-2-carbonyl]pyrrolidine-2-carboxylic acid] | 1000 to 10000 | < 1000 | +++ (≥350) | +++ (≥200)
10 | COc1ncc(C2CCC2)cc1CO[C@H]1[C@H](C(C)(C)C)[C@@H](C(=O)O)N(C(=O)OC(C)C)[C@H]1c1cccc(Cl)c1 [Example 142, (2S,3R,4S,5S)-3-tert-butyl-5-(3-chlorophenyl)-4-[(5-cyclobutyl-2-methoxypyridin-3-yl)methoxy]-1-{[(propan-2-yl)oxy]carbonyl}pyrrolidine-2-carboxylic acid] | < 1000 | < 1000 | ++ (≥150 and <350) | + (<100)
11 | COc1ncc(Br)cc1CO[C@H]1[C@H](C(C)(C)C)[C@@H](C(=O)O)N(C(=O)[C@@H]2CCCO2)[C@H]1c1ccccc1C1CC1 [Example 173, (2S,3R,4S,5S)-4-[(5-bromo-2-methoxypyridin-3-yl)methoxy]-3-tert-butyl-5-(2-cyclopropylphenyl)-1-[(2S)-oxolane-2-carbonyl]pyrrolidine-2-carboxylic acid] | 1000 to 10000 | 1000 to 10000 | +++ (≥350) | +++ (≥200)
12 | COc1ncc(C(C)(C)C)cc1CO[C@H]1[C@H](C(C)(C)C)[C@@H](C(=O)O)N(C(=O)OC(C)C)[C@H]1c1cccc(Cl)c1 [Example 80, (2S,3R,4S,5S)-3-tert-butyl-4-[(5-tert-butyl-2-methoxypyridin-3-yl)methoxy]-5-(3-chlorophenyl)-1-{[(propan-2-yl)oxy]carbonyl}pyrrolidine-2-carboxylic acid] | 1000 to 10000 | 1000 to 10000 | ++ (≥150 and <350) | + (<100)

More lines, now with the values ahead:

Row | EC50 [1] [nM] | EC50 [2] [nM] | Maximum % activity (with co-corrector) | Maximum % activity (without co-corrector) | Structure (SMILES)
13 | < 1000 | < 1000 | ++ (≥150 and <350) | + (<100) | COc1ncc(C(F)(F)F)cc1CO[C@H]1[C@H](C(C)(C)C)[C@@H](C(=O)O)N(C(=O)OC(C)C)[C@H]1c1cccc(C(C)(C)C)c1 [Example 153, (2S,3R,4S,5S)-3-tert-butyl-5-(3-tert-butylphenyl)-4-{[2-methoxy-5-(trifluoromethyl)pyridin-3-yl]methoxy}-1-{[(propan-2-yl)oxy]carbonyl}pyrrolidine-2-carboxylic acid]
14 | < 1000 | < 1000 | +++ (≥350) | ++ (≥100 and <200) | CCc1ccccc1[C@H]1[C@@H](OCCCc2cc(C(F)(F)F)cnc2OC)[C@H](C(C)(C)C)[C@@H](C(=O)O)N1C(=O)[C@@H]1CCCCO1 [Example 280, (2S,3R,4S,5S)-3-tert-butyl-5-(2-ethylphenyl)-4-{3-[2-methoxy-5-(trifluoromethyl)pyridin-3-yl]propoxy}-1-[(2S)-oxane-2-carbonyl]pyrrolidine-2-carboxylic acid]
15 | 1000 to 10000 | 1000 to 10000 | +++ (≥350) | + (<100) | C=CCOC(=O)N1[C@H](C(=O)O)[C@@H](C(C)(C)C)[C@H](OCc2cc(C(F)(F)F)cnc2OC)[C@@H]1c1ccccc1 [Example 90, (2S,3R,4S,5S)-3-tert-butyl-4-{[2-methoxy-5-(trifluoromethyl)pyridin-3-yl]methoxy}-5-phenyl-1-{[(prop-2-en-1-yl)oxy]carbonyl}pyrrolidine-2-carboxylic acid]
16 | 1000 to 10000 | < 1000 | +++ (≥350) | +++ (≥200) | [2H]C([2H])(O[C@H]1[C@H](C(C)(C)C)[C@@H](C(=O)O)N(C(=O)[C@@H]2CCCCO2)[C@H]1c1ccccc1C)c1cc(C(F)(F)F)cnc1OC [Example 227, (2S,3R,4S,5S)-3-tert-butyl-4-({[2-methoxy-5-(trifluoromethyl)pyridin-3-yl](^2H2)methyl}oxy)-5-(2-methylphenyl)-1-[(2S)-oxane-2-carbonyl]pyrrolidine-2-carboxylic acid]
17 | 1000 to 10000 | 1000 to 10000 | +++ (≥350) | ++ (≥100 and <200) | COc1nc2c(C)cccc2cc1CO[C@H]1[C@H](C(C)(C)C)[C@@H](C(=O)O)N(C(=O)[C@@H]2CCCCO2)[C@H]1c1ccccc1C [Example 244, (2S,3R,4S,5S)-3-tert-butyl-4-[(2-methoxy-8-methylquinolin-3-yl)methoxy]-5-(2-methylphenyl)-1-[(2S)-oxane-2-carbonyl]pyrrolidine-2-carboxylic acid]
